Series [1] addresses T1, BDNF/NT-3 growth factors receptor (Homo sapiens, UniProt Q16620). Kind of series: Inhibition of N-terminal GST tagged human TrkB cytoplasmic domain (456 to 822 amino acids) pre-incubated for 15 mins before peptide substrate addition for 180 mins by fluorescence based assay.
Target sequence in this assay (Q16620 whole entry, the tested form may be a part): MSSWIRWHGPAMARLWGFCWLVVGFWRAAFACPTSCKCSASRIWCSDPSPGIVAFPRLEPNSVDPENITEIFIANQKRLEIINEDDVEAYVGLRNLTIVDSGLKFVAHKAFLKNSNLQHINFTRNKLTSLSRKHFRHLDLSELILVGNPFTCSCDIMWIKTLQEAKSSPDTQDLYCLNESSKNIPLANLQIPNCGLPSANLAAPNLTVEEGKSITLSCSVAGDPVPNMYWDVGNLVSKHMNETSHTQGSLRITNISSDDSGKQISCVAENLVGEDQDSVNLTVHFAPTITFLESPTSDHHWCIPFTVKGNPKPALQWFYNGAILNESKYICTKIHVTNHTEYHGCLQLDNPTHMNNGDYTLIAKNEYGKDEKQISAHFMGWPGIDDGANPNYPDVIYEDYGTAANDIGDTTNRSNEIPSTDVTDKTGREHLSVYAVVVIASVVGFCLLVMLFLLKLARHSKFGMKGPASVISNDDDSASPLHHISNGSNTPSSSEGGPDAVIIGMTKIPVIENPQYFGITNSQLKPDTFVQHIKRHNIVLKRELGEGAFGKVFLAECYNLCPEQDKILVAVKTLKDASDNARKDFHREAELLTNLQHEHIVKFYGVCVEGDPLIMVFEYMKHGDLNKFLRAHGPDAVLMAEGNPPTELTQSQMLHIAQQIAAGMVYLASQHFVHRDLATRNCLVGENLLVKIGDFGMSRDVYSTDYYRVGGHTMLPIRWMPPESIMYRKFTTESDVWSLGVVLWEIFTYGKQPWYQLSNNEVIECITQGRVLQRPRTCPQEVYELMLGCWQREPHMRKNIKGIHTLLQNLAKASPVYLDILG
Series [2] concerns the target T2, High affinity nerve growth factor receptor (Homo sapiens, UniProt P04629). Put plainly: Inhibition of N-terminal GST tagged human TrkA cytoplasmic domain (436 to 790 amino acids) pre-incubated for 15 mins before peptide substrate addition for 180 mins by fluorescence based assay.
Target sequence in this assay (P04629 whole entry, the tested form may be a part): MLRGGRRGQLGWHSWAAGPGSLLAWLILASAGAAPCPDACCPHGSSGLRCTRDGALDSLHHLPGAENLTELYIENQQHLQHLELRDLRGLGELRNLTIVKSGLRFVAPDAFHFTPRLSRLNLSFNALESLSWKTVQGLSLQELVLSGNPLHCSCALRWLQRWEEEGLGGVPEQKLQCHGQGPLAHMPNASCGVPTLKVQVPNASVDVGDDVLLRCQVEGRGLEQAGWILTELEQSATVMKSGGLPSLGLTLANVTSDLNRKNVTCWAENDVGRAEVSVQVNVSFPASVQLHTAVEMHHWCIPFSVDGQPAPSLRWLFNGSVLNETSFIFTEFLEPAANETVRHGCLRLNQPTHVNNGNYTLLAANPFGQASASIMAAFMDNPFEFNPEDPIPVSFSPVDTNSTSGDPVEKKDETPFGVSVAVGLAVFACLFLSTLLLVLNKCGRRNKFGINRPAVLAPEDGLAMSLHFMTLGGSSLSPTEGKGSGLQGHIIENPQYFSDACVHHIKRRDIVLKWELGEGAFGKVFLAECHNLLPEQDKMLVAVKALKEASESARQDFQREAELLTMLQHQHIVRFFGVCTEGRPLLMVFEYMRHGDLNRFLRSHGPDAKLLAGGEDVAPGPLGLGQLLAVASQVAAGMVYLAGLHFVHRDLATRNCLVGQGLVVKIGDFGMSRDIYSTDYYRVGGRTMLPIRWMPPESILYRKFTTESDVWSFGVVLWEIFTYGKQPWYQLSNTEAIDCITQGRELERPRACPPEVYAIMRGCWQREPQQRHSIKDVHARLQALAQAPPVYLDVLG
In series [3] the target is NT-3 growth factor receptor (Homo sapiens, UniProt Q16288). Put plainly: Inhibition of NT3-stimulated TrkC phosphorylation in human U2OS cells by beta-galactosidase reporter gene based PathHunter profiling assay. Format: cell-based.
The target of series [4] is T2, High affinity nerve growth factor receptor. Kind of series: Inhibition of NGF-stimulated TrkA phosphorylation in human U2OS cells by beta-galactosidase reporter gene based PathHunter profiling assay. Format: cell-based.
Target sequence in this assay (P04629 whole entry, the tested form may be a part): as above
The target of series [5] is T1, BDNF/NT-3 growth factors receptor. Put plainly: Inhibition of BDNF-stimulated TrkB phosphorylation in human U2OS cells by beta-galactosidase reporter gene based PathHunter profiling assay. Format: cell-based. For orientation: A reporter such as luciferase makes a cellular process visible.
Target sequence in this assay (Q16620 whole entry, the tested form may be a part): as the sequence (Q16620 whole entry, the tested form may be a part) above
The test system of another series is P-gp. Put plainly: Binding affinity to P-gp (unknown origin) assessed as efflux ratio by cell based assay. To be noted: human, not told. Format: ADME.
Series [6] concerns the target T3, High affinity nerve growth factor receptor (Rattus norvegicus, UniProt P35739). Put plainly: Inhibition of NGF-induced TrkA auto-phosphorylation in rat PC12 cells incubated for 15 mins by chemiluminescence based method. Format: cell-based, PC-12.
Series [7] concerns Rattus norvegicus. Put plainly: Inhibition of thermal sensitization-induced tactile allodynia in it dosed rat model of L5/L6 nerve ligation injury. Format: functional.
For series [8], the system named is Rattus norvegicus. Kind of series: Inhibition of mechanical allodynia in it dosed rat model of L5/L6 nerve ligation injury. Format: functional.
For series [9], the target named is T4, Tumor necrosis factor receptor superfamily member 16 (Homo sapiens) (UniProt P08138).
T4 sequence (whole entry): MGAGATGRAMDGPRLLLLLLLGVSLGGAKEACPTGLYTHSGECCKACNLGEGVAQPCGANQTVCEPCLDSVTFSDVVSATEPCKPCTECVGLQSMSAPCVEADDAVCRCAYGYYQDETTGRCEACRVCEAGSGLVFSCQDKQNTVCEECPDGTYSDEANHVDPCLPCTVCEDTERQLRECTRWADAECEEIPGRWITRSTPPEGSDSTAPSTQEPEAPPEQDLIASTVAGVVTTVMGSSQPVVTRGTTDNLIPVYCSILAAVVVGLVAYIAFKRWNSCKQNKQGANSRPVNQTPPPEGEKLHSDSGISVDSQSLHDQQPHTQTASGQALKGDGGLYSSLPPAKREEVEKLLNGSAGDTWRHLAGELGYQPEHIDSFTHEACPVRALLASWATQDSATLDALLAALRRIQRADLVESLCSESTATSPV
Kind of series: Inhibition of mouse NGF binding to p75 (unknown origin) by SPR method relative to control. On the technique in general: In SPR one partner is held on a chip, and binding of the other changes the refractive index at the surface.

For series [10], the target named is T5, Tumor necrosis factor receptor superfamily member 16 (Homo sapiens, UniProt P08138).
T5 sequence (P08138 whole entry): T4 sequence (whole entry)
Put plainly: Inhibition of mouse NGF binding to p75 (unknown origin) by SPR method.

The subject of series [11] is Rattus norvegicus. Put plainly: Inhibition of mechanical allodynia ip dosed rat model of L5/L6 nerve ligation injury. The class given is functional.
Series [12] addresses T3, High affinity nerve growth factor receptor. Kind of series: Inhibition of binding of [125I]-NGF to TrkA in rat PC12 cells incubated for 2 hrs by gamma counting method. The class given is cell-based, PC-12.
The target in another series is Beta-nerve growth factor (Mus musculus, UniProt P01139). Put plainly: Inhibition of mouse NGF binding to TrkA (unknown origin) by SPR method. Set-up: species or system Homo sapiens.
Beta-nerve growth factor, sequence (P01139 whole entry, looked up): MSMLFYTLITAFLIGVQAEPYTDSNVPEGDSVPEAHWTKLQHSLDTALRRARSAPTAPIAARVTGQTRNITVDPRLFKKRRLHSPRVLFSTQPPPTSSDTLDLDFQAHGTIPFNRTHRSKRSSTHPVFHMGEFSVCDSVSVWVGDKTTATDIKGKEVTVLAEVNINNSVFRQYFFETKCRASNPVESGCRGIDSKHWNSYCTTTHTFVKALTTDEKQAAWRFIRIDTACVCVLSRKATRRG
For series [13], the target named is T2, High affinity nerve growth factor receptor. Kind of series: Inhibition of mouse NGF binding to TrkA (unknown origin) by SPR method relative to control.
Target sequence in this assay (P04629 33-796 limits assumed): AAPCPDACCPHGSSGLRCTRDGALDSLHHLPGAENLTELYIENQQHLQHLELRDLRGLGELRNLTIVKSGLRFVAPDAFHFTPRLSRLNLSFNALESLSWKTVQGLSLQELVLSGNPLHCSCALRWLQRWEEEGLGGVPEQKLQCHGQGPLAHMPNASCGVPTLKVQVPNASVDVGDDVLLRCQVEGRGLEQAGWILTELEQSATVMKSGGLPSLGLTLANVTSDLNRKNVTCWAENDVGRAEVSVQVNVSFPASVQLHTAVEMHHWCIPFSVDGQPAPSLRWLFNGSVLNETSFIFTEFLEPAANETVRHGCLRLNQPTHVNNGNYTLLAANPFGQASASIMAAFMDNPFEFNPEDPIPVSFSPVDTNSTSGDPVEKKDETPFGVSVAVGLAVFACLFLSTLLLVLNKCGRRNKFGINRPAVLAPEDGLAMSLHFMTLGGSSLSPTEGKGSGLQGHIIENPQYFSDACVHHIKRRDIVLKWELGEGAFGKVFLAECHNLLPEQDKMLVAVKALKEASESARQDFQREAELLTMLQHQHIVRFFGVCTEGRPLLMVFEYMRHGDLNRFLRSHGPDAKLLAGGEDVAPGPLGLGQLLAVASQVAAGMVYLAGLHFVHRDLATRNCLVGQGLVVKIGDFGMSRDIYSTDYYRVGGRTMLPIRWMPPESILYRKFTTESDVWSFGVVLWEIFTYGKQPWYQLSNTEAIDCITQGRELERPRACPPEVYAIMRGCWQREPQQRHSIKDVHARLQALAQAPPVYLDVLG
The target is the same in series [14]. Kind of series: Inhibition of His-tagged recombinant human TrkA using Alexa-Fluor tracer-236 incubated for 60 mins by TR-FRET based Lantha-screen Eu kinase binding assay.
Target sequence in this assay (P04629 whole entry, the tested form may be a part): as the sequence (P04629 whole entry, the tested form may be a part) above
For series [15] the target is unchanged. Put plainly: Inhibition of TrkA (unknown origin) by cell based assay.
Target sequence in this assay (P04629 whole entry, the tested form may be a part): as above
Series [16] concerns the target T1, BDNF/NT-3 growth factors receptor. Kind of series: Inhibition of His6 tagged human recombinant TrkB (455 to end amino acids) expressed in Sf21 cells at 10 uM.
Target sequence in this assay (Q16620 32-822 limits assumed): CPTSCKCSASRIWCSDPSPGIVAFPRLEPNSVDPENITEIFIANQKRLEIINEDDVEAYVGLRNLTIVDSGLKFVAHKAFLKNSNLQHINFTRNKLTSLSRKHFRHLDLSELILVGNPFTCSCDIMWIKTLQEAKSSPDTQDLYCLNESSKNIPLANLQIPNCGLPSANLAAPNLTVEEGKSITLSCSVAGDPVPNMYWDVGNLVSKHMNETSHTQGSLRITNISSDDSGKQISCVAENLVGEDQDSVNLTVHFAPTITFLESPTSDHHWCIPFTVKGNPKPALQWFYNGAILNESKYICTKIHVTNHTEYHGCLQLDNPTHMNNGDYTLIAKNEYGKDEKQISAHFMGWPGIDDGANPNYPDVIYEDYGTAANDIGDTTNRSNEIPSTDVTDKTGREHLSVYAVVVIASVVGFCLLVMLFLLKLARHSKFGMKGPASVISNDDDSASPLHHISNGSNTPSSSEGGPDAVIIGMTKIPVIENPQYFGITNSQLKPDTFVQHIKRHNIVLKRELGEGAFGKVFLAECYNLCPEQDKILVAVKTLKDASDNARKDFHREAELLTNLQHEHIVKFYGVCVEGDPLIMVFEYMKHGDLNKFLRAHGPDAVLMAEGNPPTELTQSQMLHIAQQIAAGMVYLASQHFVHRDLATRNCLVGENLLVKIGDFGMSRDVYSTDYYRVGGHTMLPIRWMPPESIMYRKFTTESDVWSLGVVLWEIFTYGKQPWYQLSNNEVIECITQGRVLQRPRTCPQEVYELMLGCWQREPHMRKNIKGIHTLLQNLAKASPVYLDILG

This note sets out measurements from ChEMBL document CHEMBL3860101, “Targeting the Nerve Growth Factor (NGF) Pathway in Drug Discovery. Potential Applications to New Therapies for Chronic Pain” (J Med Chem, 2017).

pEC50, pIC50: −log10 of the molar value.

T3 sequence (P35739 whole entry): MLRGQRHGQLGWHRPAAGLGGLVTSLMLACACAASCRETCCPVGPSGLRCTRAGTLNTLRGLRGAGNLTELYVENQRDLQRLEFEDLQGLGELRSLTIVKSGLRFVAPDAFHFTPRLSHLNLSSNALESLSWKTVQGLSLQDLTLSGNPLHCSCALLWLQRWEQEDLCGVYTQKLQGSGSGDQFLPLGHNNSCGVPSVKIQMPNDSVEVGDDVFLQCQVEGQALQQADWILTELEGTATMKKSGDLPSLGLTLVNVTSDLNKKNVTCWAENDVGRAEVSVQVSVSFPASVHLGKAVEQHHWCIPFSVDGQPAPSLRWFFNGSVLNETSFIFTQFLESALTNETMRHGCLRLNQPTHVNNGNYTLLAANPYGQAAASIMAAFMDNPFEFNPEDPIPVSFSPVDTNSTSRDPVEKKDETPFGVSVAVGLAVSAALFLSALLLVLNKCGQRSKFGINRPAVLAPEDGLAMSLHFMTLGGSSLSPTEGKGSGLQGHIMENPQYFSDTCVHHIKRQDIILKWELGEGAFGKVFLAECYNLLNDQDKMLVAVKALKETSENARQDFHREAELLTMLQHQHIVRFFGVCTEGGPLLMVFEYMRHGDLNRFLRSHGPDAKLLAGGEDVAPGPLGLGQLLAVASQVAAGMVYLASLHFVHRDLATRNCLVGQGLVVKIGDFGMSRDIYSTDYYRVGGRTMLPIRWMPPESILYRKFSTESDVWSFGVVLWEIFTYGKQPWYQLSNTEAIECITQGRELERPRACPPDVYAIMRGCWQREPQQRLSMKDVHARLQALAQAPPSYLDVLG

What is called pIC50 is −log10 of the IC50, conventionally taken in molar units. On to `COc1ccc(COc2ccc(Cn3c(N)nc4cc(-c5cnn(C)c5)ccc43)cc2OC)cc1`, for which the negative logarithm of the IC50 (pIC50) in series [1] and in series [2] was 9.52 in each case.

Regarding `O=C(O)c1ccc(Nc2cc(N3CCN(C4CCCCC4)CC3)c3noc4c3c2C(=O)c2ccccc2-4)cc1`, the figures for the negative-log IC50 (pIC50) in [3], in series [4] and in series [5] were under 5.00, 7.30 and under 5.00, respectively.

By efflux ratio is commonly meant the permeability from basolateral to apical divided by that in the opposite direction, in the common usage. Consider `COc1ccc(C(=O)c2cn(C(C)C)c3ncnc(N)c23)cc1NC(=O)Nc1ccc(Cl)cc1Cl` [CE-245677], for which the efflux ratio in the series with P-gp was 1.

Usually pEC50 stands for the negative decadic logarithm of the EC50, by convention in mol/L. The low end stands for a high EC50, the high end for a low EC50. Turning to `O=C1c2cccc3cc([N+](=O)[O-])cc(c23)C(=O)N1NCCO`, the negative logarithm of the EC50 (pEC50) in series [6] is 4.66. Also, the figures for the ED50 in the series on Rattus norvegicus [7], in the series on Rattus norvegicus [8] and in the series on Rattus norvegicus [11] were 50 µg, 34.6 µg and 38 mg/kg, respectively. Besides, the Imax came out at 6.2% in series [9] and 44% in series [13]. Besides, the pIC50 was under 3.52 in series [10], 5.23 in series [12] and 3.83 on Beta-nerve growth factor.

On to `Cc1c(-c2cnn(C)c2)nn(-c2ccccc2)c1NC(=O)Nc1cc(C(F)(F)F)nn1-c1ccccc1`, for which, in [14], the pIC50 was over 7.00.

Turning to `CC(=O)NCc1ncc(NC(=O)c2ccc(C(F)(F)F)c(-c3ccn(C)n3)c2)c(-c2ccccc2)n1`, the pIC50 in series [15] was 8.40.

One may read the inhibition as the relative decrease from the control value, in per cent. For the compound `COCc1ccc2cccc(NC(=O)Nc3c(C)c(-c4cnn(C)c4)nn3-c3ccccc3)c2c1`, the inhibition in series [16] is 91%. The negative logarithm of the IC50 (pIC50) in series [14] was over 7.00.

For the compound `Cn1c2c(N)cc(N)cc2c(=O)n2nc(C(=O)O)c([N+](=O)[O-])c12`, in series [9], the Imax is 70%.

`COCCCc1cc(Cl)c(Cl)cc1NC(=O)Nc1c(C)c(-c2cnn(C)c2)nn1-c1ccccc1`: the pIC50 in [14] was over 7.00.

As for `Cn1c2ccc(NC(=O)c3ccccc3)cc2c(=O)n2nc(C(=O)O)cc12`, the Imax is 65% in series [9] and 100% in series [13]. In addition, the results for the negative logarithm of the IC50 (pIC50) (in [10]; at Beta-nerve growth factor) were 3.96 and 4.33, respectively.

Take `Cc1cc2nc3c(=O)[nH]c(=O)nc-3n(C)c2cc1C=O`: the values for the Imax in series [9] and in [13] were 37% and 100%, respectively. Besides, the pIC50 in series [10] was 3.61; at Beta-nerve growth factor, 4.48.

For the compound `Cc1c(-c2cnn(C)c2)nn(-c2ccccc2)c1NC(=O)Nc1sc(C(F)(F)F)nc1-c1ccccc1`, the inhibition in series [16] amounted to 97%. Further, the negative logarithm of the IC50 (pIC50) in [14] was over 7.00.
